Results as given in paper PMC9499467, “Phenanthroindolizidine Alkaloids Isolated from Tylophora ovata as Potent Inhibitors of Inflammation, Spheroid Growth, and Invasion of Triple-Negative Breast Cancer” (International Journal of Molecular Sciences, 2022).
Read-outs that look alike come from different tables or passages of the source.

Legend:
[1] = system: NFκB; assay: NFκB inhibition assay (2 h), NFκB-dependent nanoluc luciferase reporter; assay type: cell-based, human; settings: read-out: NFκB Inhibition 2 h IC50; NFκB-MDA-MB-231-nanoluc cells, 2-h treatment, mean ± SD
Protocol: Experiments were performed according to the published protocol. On day 1, 4 × 10^4 NFκB-MDA-MB-231-nanoluc cells were seeded into white 96 well plates (Greiner; #655098). On day 2, the medium was replaced with starvation medium and the cells were pre-incubated for 20 min with either 100 µL of DMSO (Roth; #A994.1) alone at a concentration of maximal 0.1% or with the final concentration of the diluted compounds (Table 3). To activate NFκB signaling, cells were stimulated with 1 µg/mL LPS (Sigma-Aldrich; #L2630) beforehand. NFκB-dependent luciferase activity was measured according to the manufacturer`s protocol for the Nano-Glo Luciferase Assay System (Promega, Mannheim, Germany; #N1110). NFκB-dependent luminescence was determined as relative light units (RLU) using the microplate reader Spark® (Tecan, Männedorf, Switzerland).

[2] = system: MDA-MB-231; assay: 2D cell viability (PrestoBlue resazurin) in MDA-MB-231; assay type: cell-based, human; settings: read-out: Reduction of Cell Viability 24 h IC50; MDA-MB-231 2D monolayer, 24 h post-treatment, mean ± SD
Protocol: Cell viability was determined based on resazurin-reduction in viable cells according to the PrestoBlue^TM Assay. On day 1, MDA-MB-231 (1.5 × 10^4 cells per well or 7.5 × 10^3 cells per well) were seeded into black 96 well plates (Greiner; #655090) in a total volume of 100 µL. On day 2, the compounds or DMSO (Roth; #A994.1) alone at maximal 0.1% were applied (final concentrations after serial dilution shown in Table 3). An amount of 20 µM staurosporine (Sigma-Aldrich; #S5921) served as a positive control. On day 3, the PrestoBlue^TM reagent (Invitrogen^TM, Darmstadt, Germany; #A13262) was applied according to the manufacturer`s instructions. Finally, cell viability-dependent fluorescence was recorded in relative fluorescence units (RFU) with excitation/emission (Exλ/Emλ) at 535/590 nm or 560/590 nm, using the microplate reader Spark® (Tecan).

[3] = system: 3D co-culture spheroids of MDA-MB-231 and primary murine CAFs; assay: 3D cell viability (ATP content) in TNBC co-culture spheroids; assay type: cell-based, human MDA-MB-231
Protocol: On day 1, 3000 cells were seeded into a low-attachment 96 well plate (Greiner; #650970). […] Cell viability was determined based on the ATP content in viable cells according to the manufacturer`s instructions (Promega #G9682). Co-culture spheroids were generated for 72 h before they were grown for another 72 h with or without exposure to the compounds. […] Cell viability-dependent luminescence was determined as relative light units (RLU) using the microplate reader Spark® (Tecan).

[4] = system: 3D co-culture spheroids of MDA-MB-231 and primary murine CAFs; assay: 3D growth studies, spheroid size of co-culture spheroids; assay type: cell-based, human MDA-MB-231; settings: 100 nM, 72 h
Protocol: To emulate the TNBC microenvironment, 3D spheroids composed of MDA-MB-231 and CAFs at a ratio of 1:2 in a collagen-based matrix were generated. The culture medium of both cell lines was mixed (DMEM:RPMI 1640 (1:1) + 12.5% FCS + 1% PS) and supplemented with 0.05 mg/mL collagen type I (Thermo Fisher Scientific; #A1048301). On day 1, 3000 cells were seeded into a low-attachment 96 well plate (Greiner; #650970). Spheroids were grown for 72 h before proceeding with compound treatment on day 4, and analysis on day 7 according to the “Spheroid immunostaining”, “3D cell viability”, or “3D growth” studies presented in the results section.
Co-culture spheroids were generated for 72 h before they were exposed to either DMSO (Roth; #A994.1) alone at maximal 0.1%, 100 nM paclitaxel (Santa Cruz Biotechnology; #sc-201439), or 100 nM of compound (1) for another 72 h. At least three spheroids per treatment group were analyzed. For that purpose, brightfield images of the spheroids were acquired at 100× g magnification using the microscope Axio Vert.A1 (Zeiss). The spheroid surface area was quantified in brightfield images using Fiji (open-source software; version 1.52i) and was further defined as spheroid size. In each individual experiment spheroid size was normalized to the smallest (which was set to 0%) and to the largest spheroids (which was set to 100%).

[5] = system: CAFs; assay: 2D cell viability in CAFs; assay type: cell-based, murine; settings: Mus musculus, 24 h, read-out: Reduction of Cell Viability 24 h IC50 in CAFs
Protocol: Table S1 IC50-values for reduction of cell viability determined in CAFs.
Compound Cell Viability 1
1 Cell viability of CAFs was determined 24 h post-treatment with the 2D cell viability assay. CAFs were seeded at a cell density of 2.5 × 10^3 cells per well. Compound concentration was applied in triplicates in a four-fold serial dilution starting at 1000 nM. 2 Duration of treatment. 3 Mean ± SD […]
50 µM. 4 Mean ± SD (n = 3). 5 Mean ± SD (n = 2).

SMILES	IC50 [1] [nM]	IC50 [2] [nM]	IC50 ([3]; read-out: Reduction of Cell Viability 72 h IC50, 3D co-culture spheroids, 72 h treatment, mean ± SD (n = 3)) [nM]	reduction of spheroid growth compared to untreated spheroids [4] [%]	IC50 [5] [nM]	IC50 ([3]; Mus musculus, MDA-MB-231, 72 h, read-out: Reduction of Cell Viability 72 h IC50, 3D co-culture spheroids, 72 h treatment, mean ± SD (n = 3)) [nM]
COc1ccc2c3c(c4cc(OC)c(OC)cc4c2c1)CN1CCCC1C3O (centres unmarked) [Compound (1), O-methyltylophorinidine]	17.1 ± 2	13.6 ± 0.4	21.7 ± 2.5	40	2.7 ± 0.9	
COc1ccc2c3c(c4cc(OC)c(OC)cc4c2c1)CN1CCCC1C3O (centres unmarked) [Compound (1s), O-methyltylophorinidine]	3.3 ± 0.2	4.2 ± 1				11.2 ± 2.1
